# Assay results as given in US10143747B2, “Breast cancer therapeutics” (IMBA—INSTITUT FÜR MOLEKULARE BIOTECHNOLOGIE GMBH, priority 2010, dated 2018).
# How the values were obtained:
# RANKL = RANKL protein in mammary gland / isolated mammary epithelial cells (immunostaining, Western blot) after MPA implantation; type: in vivo, mouse
# Procedure: a,b, Induction of RANKL expression by the progesterone-derivative MPA. Nulliparous wild type females were s.c. implanted with slow-release MPA pellets or treated with surgery sham. a, RANKL mRNA was determined in purified mammary epithelial cells by qRT-PCR three days after implantation. Data are shown as fold change compared to sham treatment (+/−sem) (n=3). b, In situ […] immunostaining of progesterone receptor (PR, red) and RANKL (green) in mammary epithelial cells after 3d MPA treatment. c, Induction of soluble RANKL protein assayed on isolated mammary gland epithelial cells from control, but not in prolactin receptor mutant (PRL-R KO) females on day 3 after s.c. MPA implantation. Mammary glands from sham operated control litter-mates and PRL-R KO females are shown as controls. d, Epithelial proliferation in mammary glands of control littermates and RANK^Δmam females 3 days after sham treatment and MPA implantation. Proliferation was determined by in situ Ki67 immunostaining. e,f, Marked increase of the stem cell-enriched CD24^+CD49^high population (MaSC) in MPA-treated mammary glands in control but not in RANK^Δmam mammary glands. e, Representative FACS profiles showing CD24 and CD49 expression of lineage negative (CD31^− (endothelial cells) CD45^− (hematopoietic cells) […] (erythroid cells)) of mammary MaSCs from MPA- or sham-treated 8-week old virgin females. f, Quantification of MaSC-enriched CD24^+CD49^high population from mammary glands of MPA- or sham-treated virgin RANK^Δmam and littermate control females. For all MaSCs experiments mice were treated with MPA for 3 days. n=4 per group+/−sem. *P<0.05; ***P<0.001 (Student's t-test).
# a-d, Induction of RANKL expression by the progesterone-derivative MPA. Nulliparous wild type females were s.c. implanted with slow-release MPA pellets or treated with surgery sham. a, Expression of transmembrane (tm) and soluble (s) RANKL protein was assayed on isolated mammary gland epithelial cells by Western blot 3 and 6 days after MPA pellet implantation or sham surgery. β-actin is shown as a loading control. Recombinant murine sRANKL and recombinant human tmRANKL protein are shown for molecular size comparison in the right panels. […] Numbers indicate amino acid residues. c, Expression of total (t) RANKL, RANKL1, RANKL2, and RANKL3 mRNA in purified mammary epithelial cells after three days MPA treatment. β-actin is shown as a control. d, Representative agarose gel of RT-PCR products as in c. e, mRNA expression of various proteases known to shed RANKL from the surface of cells. mRNA was determined in purified mammary epithelial cells by qRT-PCR three days after MPA implantation. […]
# [1] = system: SKBR3 breast cancer cells; experiment: Growth curve of SKBR3 cells, live cell counting; type: cell-based, human; conditions: RANKL 1 μg/ml, 3 days
# Procedure: a, Western blotting for phosphorylated (P) p65 NFκB, total p65 NFκB, phosphorylated (P) IκBα, total IκBα, phosphorylated (P) ERK1/2, total ERK1/2, phosphorylated (P) p38-MAPK, and p38-MAPK in human SKBR3 breast cancer cells in response to RANKL stimulation (1 μg/ml). Data are representative of 3 experiments. b, Growth curve of SKBR3 breast cancer cells cultured in normal growth medium (control, DMEM supplemented with 10% FCS) or in the presence of RANKL (1 μg/ml). Cell numbers were determined by counting live cells (trypan blue-exclusion) over 3 days. c, Onset of palpable mammary tumors in NFATc1^Δmam (n=10) and age matched littermate control (n=16) females treated with MPA pellets and DMBA. Data are shown as percentage of tumor free mice after the last DMBA challenge. No significant difference was found. d, Quantification of NFATc1 mRNA expression in purified mammary epithelial cells (MECs) and MPA-driven mammary tumors from NFATc1^Δmam and littermate control females. mRNA was determined by qRT-PCR. Data are shown as fold change compared to control (+/−sem). n=5 Per group. *P<0.05 (Student's t-test).
Molecule,"19 kDa soluble form of RANKL, Western blotting of isolated mammary epithelial cells (RANKL; 3 and 6 days after MPA pellet implantation)","RANKL protein in the mammary gland, immunohistochemistry (RANKL; 3 d MPA treatment)","RANKL protein production (RANKL; female control mice, day 3 after s.c. MPA implantation)","RANKL protein induction (RANKL; prolactin receptor mutants (PRL-R KO), day 3 after s.c. MPA implantation)",proliferation of SKBR3 cells [1]
"CC(=O)O[C@]1(C(C)=O)CC[C@H]2[C@@H]3C[C@H](C)C4=CC(=O)CC[C@]4(C)[C@H]3CC[C@@]21C [MPA, medroxyprogesterone acetate]",induction of the 19 kDa soluble form of RANKL,induction of RANKL protein in the mammary gland,triggers substantial production of RANKL protein,failed to detect RANKL induction,
"RANKL: recombinant RANKL protein, ligand of RANK, used as stimulus (1 μg/ml or 1 μg i.p.) (protein, UniProt O35235 139-316, looked up) Tumor necrosis factor ligand …: FSGAPAMMEGSWLDVAQRGKPEAQPFAHLTINAASIPSGSHKVTLSSWYHDRGWAKISNMTLSNGKLRVNQDGFYYLYANICFRHHETSGSVPTDYLQLMVYVVKTSIKIPSSHNLMKGGSTKNWSGNSEFHFYSINVGGFFKLRAGEEISIQVSNPSLLDPDQDATYFGAFKVQDID",,,,,"induced NFκB, p38-MAPKs and ERK activation and proliferation"
